What was measured:
HER-2 = molecular target: T1, HER-2 (Homo sapiens, UniProt P04626); experiment: Inhibition of HER-2 phosphorylation in Calu-3 tumor cell line; format: cell-based; settings: Calu-3 cells, compound 1 μM, 16 h, pY 1248 in HER-2, percentage of DMSO control; for inhibition at 1 µM: read-out: Percent inhibition of HER2-phosphorylation (compound concentration 1 μM)
T1 construct: endogenous in cells; host or cells: Calu-3 (ATCC HTB-55)
Method: Inhibition of HER-2 Phosphorylation in Calu-3 Tumor Cell Line
2×10^5 Calu-3 (ATTC HTB-55) cells per well were plated in a 12-well plate. After 4 days cells were starved for 16 h in Dulbecco's Modified Eagle Medium (DMEM)/0.5% Fetal Calf Serum (FCS)/1% Glutamine. During this 16 h period cells were incubated with a solution of the test compound in dimethylsulfoxide(DMSO), so that the final concentration of the compound is 1 μM and the final volume of DMSO is 0.5%. Afterwards cells were lysed in lyses buffer containing 1% Triton®X-100, 10% Glycerol, 1 mM Ethylene glycol-bis(2-aminoethylether)-N,N,N′,N′-tetraacetic acid (EGTA), 1.5 mM MgCl2, 150 mM NaCl, 50 mM 4-(2-hydroxyethyl)-1-piperazineethanesulfonic acid (HEPES) buffer pH 7.5, 1 mM Phenylmethylsulfonyl fluoride (PMSF), 10 ∥g/mL Aprotinin and […] Orthovanadate. Cell lysates were analyzed on a Sodium Dodecyl Sulfate Polyacrylamide Gel Electrophoresis (SDS PAGE) and after transfer to a nitrocellulose membrane detected with an antibody specifically recognizing the pY 1248 in HER-2. Inhibition of HER-2 phosphorylation is calculated as percentage of the control, which is treated with DMSO only.

HEK293 cells = experiment: Viability assay of HEK293 cells (CellTiter-Glo); format: cell-based; settings: Homo sapiens, 168 h, 7 days, 3 μM to 0.00015 μM, luminescence
Method: Viability Assay of HEK293 Cells
A viability assay was performed using the CellTiter-Glo™ Luminescent Cell Viability Assay (see Promega Corporation's Technical Publication No. 288, pp. 1-11 [revised 2.04] which is hereby incorporated by reference in its entirety). This assay is a homogeneous method of determining the number of viable cells in culture based on quantitation of the ATP present, which signals the presence of metabolically active cells. The assay is designed for use with multiwell formats, making it ideal for automated high-throughput screening (HTS), cell proliferation and cytotoxicity assays. The homogeneous assay procedure involves adding a single reagent (containing luciferase, luciferan substrate, and buffer) directly to cells cultured in serum-supplemented medium. Cell washing, removal of medium and multiple pipetting steps are not required. The system detects as few as 15 cells/well in a 384-well format in 10 minutes after adding reagent and mixing.
The homogeneous “add-mix-measure” format results in cell lysis and generation of a luminescent signal proportional to the amount of ATP present. The amount of ATP is directly proportional to the number of cells present in culture. The above-referenced assay generates a “glow-type” luminescent signal, produced by the luciferase reaction, which has a half-life generally greater than five hours, depending on cell type and medium used. The extended half-life eliminates the need to use reagent injectors and provides flexibility for continuous or batch mode processing of multiple plates. The unique homogeneous format avoids errors that may be introduced by other ATP measurement methods that require multiple steps.
HEK293 cells (human embryonic kidney cell line transformed by Adenovirus 5 fragments, ATCC-No. CRL 1573) were cultivated in Dulbecco's Modified Eagle Medium (DMEM) (1×) liquid (high glucose) (which includes L-Alanyl-L-Glutamine [a stabilized a form of L-Glutamine], 4500 mg/L glucose, and 110 mg/L sodium pyruvate) from Invitrogen Corporation (Invitrogen Catalog Number 31966-021 [now 10569-010] which is hereby incorporated by reference in its entirety), 5% Fetal Calf Serum (FCS, Sigma Cat-No. F4135 (FBS) which is hereby incorporated by reference in its entirety), and 100 Units/ml penicillin/100 μg/ml streptomycin(=Pen/Strep from Invitrogen Cat. No. 15140 which is hereby incorporated by reference in its entirety). For the assay the cells were seeded in 384 well plates, 5000 cells per well, in the same medium. The next day the test compounds were added in various concentrations ranging from 3 μM to 0.00015 μM (10 concentrations, 1:3 diluted). After 7 days the above viability assay was performed in accordance with the following steps: • Step 1: The cell-plate was equilibrated to room temperature for approximately 30 minutes and than the assay reagent was added. • Step 2: The contents were carefully mixed for 15 minutes to induce cell lysis. • Step 3: After 45 minutes the luminescent signal was measured in Victor 2, (scanning multiwell spectrophotometer, Wallac). Details: 1st Day: • Medium: Dulbecco's Modified Eagle Medium (DMEM) (1×) liquid (high glucose) (which includes L-Alanyl-L-Glutamine [a stabilized a form/source of L-Glutamine], 4500 mg/L glucose, and 110 mg/L sodium pyruvate) from Invitrogen Corporation (Invitrogen Catalog Number 31966-021 [now 10569-010]), 5% Fetal Calf Serum (FCS, Sigma Cat-No. F4135 (FBS)), and Pen/Strep (Invitrogen Cat. No. 15140). • HEK293 (ATCC-No. CRL 1573): 5000 cells in 60 μl per well of 384 well plate. (Greiner 781098, white plates) • Incubate 24 h at 37° C., 5% CO2 2nd Day: Induction (Substance Testing):
In general the dilution steeps are 1:3 a) Add 8 μl of 10 mM stock solution of compound to 72 μl DMSO b) dilute 9×1:3 (always 30 μl to 60 μl DMSO) in this DMSO dilution row (results in 10 wells with concentrations from 1000 μM to 0.06 μM) c) dilute each concentration 1: 4.8 (10 μl compound dilution to 38 μl medium) […]

T1 sequence (P04626 23-1255): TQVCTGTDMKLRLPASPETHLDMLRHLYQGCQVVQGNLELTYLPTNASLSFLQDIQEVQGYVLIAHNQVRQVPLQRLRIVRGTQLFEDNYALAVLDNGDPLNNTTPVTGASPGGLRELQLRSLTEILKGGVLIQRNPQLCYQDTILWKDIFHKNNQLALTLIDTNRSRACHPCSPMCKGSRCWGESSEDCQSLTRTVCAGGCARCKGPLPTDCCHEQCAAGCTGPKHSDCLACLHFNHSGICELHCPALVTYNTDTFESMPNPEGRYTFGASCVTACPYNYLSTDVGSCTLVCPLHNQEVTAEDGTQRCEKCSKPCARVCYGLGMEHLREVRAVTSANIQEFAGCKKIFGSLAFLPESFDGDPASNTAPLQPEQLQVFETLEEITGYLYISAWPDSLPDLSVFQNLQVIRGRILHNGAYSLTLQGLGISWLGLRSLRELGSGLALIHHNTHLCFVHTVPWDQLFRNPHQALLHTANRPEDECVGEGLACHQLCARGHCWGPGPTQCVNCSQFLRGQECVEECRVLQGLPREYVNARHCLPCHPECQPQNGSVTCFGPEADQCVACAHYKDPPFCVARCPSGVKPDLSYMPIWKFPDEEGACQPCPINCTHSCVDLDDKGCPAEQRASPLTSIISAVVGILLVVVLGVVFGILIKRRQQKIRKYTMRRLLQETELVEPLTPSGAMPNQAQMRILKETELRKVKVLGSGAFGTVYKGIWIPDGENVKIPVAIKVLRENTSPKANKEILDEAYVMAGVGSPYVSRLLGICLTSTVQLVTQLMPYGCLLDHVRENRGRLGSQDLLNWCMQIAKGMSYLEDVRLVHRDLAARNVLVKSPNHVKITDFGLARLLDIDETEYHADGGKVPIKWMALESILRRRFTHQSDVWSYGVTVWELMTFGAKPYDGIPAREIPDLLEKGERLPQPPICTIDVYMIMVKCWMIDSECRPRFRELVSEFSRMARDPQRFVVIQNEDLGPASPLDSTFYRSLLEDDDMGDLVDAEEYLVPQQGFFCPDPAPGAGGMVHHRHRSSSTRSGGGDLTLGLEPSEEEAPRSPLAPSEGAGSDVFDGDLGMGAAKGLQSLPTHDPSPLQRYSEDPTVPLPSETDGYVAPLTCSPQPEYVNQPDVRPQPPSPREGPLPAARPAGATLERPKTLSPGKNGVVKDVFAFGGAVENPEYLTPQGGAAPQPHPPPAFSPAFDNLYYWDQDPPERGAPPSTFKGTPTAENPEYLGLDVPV

Row | inhibition at 1 µM (HER-2) [%] | Percent inhibition of HER2-phosphorylation (compound concentration 1 μM) (HER-2) [%] | Structure (SMILES) | IC50 (HEK293 cells) [nM]
1 |  | 69 | O=C(Nc1ccc(SC(F)(F)F)cc1)c1coc(COc2ccc(CCCCn3ccnn3)cc2)n1 [Example 11, 2-[4-(4-[1,2,3]Triazol-1-yl-butyl)-phenoxymethyl]-oxazole-4-carboxylic acid (4-trifluoro-methylsulfanyl-phenyl)-amide] | 
2 | 55 to 70 |  | O=C(Nc1ccc(OC(F)F)cc1)c1coc(COc2ccc(CCCCn3ccnn3)cc2)n1 [Example 22, 2-[4-(4-[1,2,3]Triazol-1-yl-butyl)-phenoxymethyl]-oxazole-4-carboxylic acid (4-difluoromethoxy-phenyl)-amide] | 
3 | 70 to 80 |  | COc1ccc(NC(=O)c2coc(COc3ccc(CCCCn4ccnn4)cc3)n2)cc1 [Example 37, 2-[4-(4-[1,2,3]Triazol-1-yl-butyl)-phenoxymethyl]-oxazole-4-carboxylic acid (4-methoxy-phenyl)-amide] | 
4 | 55 to 70 |  | O=C(Nc1ccc2c(c1)OC(F)(F)O2)c1coc(COc2ccc(CCCCn3ccnn3)cc2)n1 [Example 9, 2-[4-(4-[1,2,3]Triazol-1-yl-butyl)-phenoxymethyl]-oxazole-4-carboxylic acid (2,2-difluoro-benzo [1,3]dioxol-5-yl)-amide] | 116
5 | > 80 |  | O=C(Nc1ccc(C(F)(F)F)cc1)c1coc(COc2ccc(CCCCn3ccnn3)cc2)n1 [Example 13, 2-[4-(4-[1,2,3]Triazol-1-yl-butyl)-phenoxymethyl]-oxazole-4-carboxylic acid (4-trifluoromethyl-phenyl)-amide] | 5 to 500
6 | 70 to 80 |  | Cc1ccc(NC(=O)c2coc(COc3ccc(CCCCn4ccnn4)cc3)n2)cc1F [Example 36, 2-[4-(4-[1,2,3]Triazol-1-yl-butyl)-phenoxymethyl]-oxazole-4-carboxylic acid (3-fluoro-4-methyl-phenyl)-amide] | 5 to 500
7 | 55 to 70 |  | O=C(Nc1ccc(F)cc1)c1coc(COc2ccc(CCCCn3ccnn3)cc2)n1 [Example 31, 2-[4-(4-[1,2,3]Triazol-1-yl-butyl)-phenoxymethyl]-oxazole-4-carboxylic acid (4-fluoro-phenyl)-amide] | 500 to 3000
8 |  | 75 | O=C(Nc1ccc(OC(F)(F)F)cc1)c1coc(COc2ccc(CCCCn3ccnn3)cc2)n1 [Example 10, 2-[4-(4-[1,2,3]Triazol-1-yl-butyl)-phenoxymethyl]-oxazole-4-carboxylic acid (4-trifluoro-methoxy-phenyl)-amide] | 

The next lines start with the molecule.

Row | Structure (SMILES) | inhibition at 1 µM (HER-2) [%] | Percent inhibition of HER2-phosphorylation (compound concentration 1 μM) (HER-2) [%] | IC50 (HEK293 cells) [nM]
9 | O=C(Nc1ccc(OC(F)(F)F)cc1)c1csc(COc2ccc(CCCCn3ccnn3)cc2)n1 [Example 43, 2-[4-(4-[1,2,3]Triazol-1-yl-butyl)-phenoxymethyl]-thiazole-4-carboxylic acid (4-trifluoromethoxy-phenyl)-amide] | > 80 |  | 500 to 3000
10 | FC(F)(F)c1ccc(C=Cc2nc(COc3ccc(CCCCn4ccnn4)cc3)co2)cc1 [reference compound, 1-[4-(4-{2-[2-(4-Trifluoromethyl-phenyl)-vinyl]-oxazol-4-ylmethoxy}-phenyl)-butyl]-1H-[1,2,3]triazole, reference compound] | 52 |  | 
11 | CN(C(=O)c1coc(COc2ccc(CCCCn3ccnn3)cc2)n1)c1ccc(Cl)cc1 [Example 2, 2-[4-(4-[1,2,3]Triazol-1-yl-butyl)-phenoxymethyl]-oxazole-4-carboxylic acid (4-chloro-phenyl)-methyl-amide] | 55 to 70 |  | 
12 | CC(C)(C)c1ccc(C(=O)Nc2nc(COc3ccc(CCCCn4ccnn4)cc3)cs2)cc1 [Example 52-21, 4-tert-Butyl-N-{4-[4-(4-[1,2,3]triazol-1-yl-butyl)-phenoxymethyl]-thiazol-2-yl}-benzamide] | > 80 |  | 5 to 500
13 | O=C(Nc1ccc(C(F)(F)F)cc1)c1csc(COc2ccc(CCCCn3ccnn3)cc2)n1 [Example 41, 2-[4-(4-[1,2,3]Triazol-1-yl-butyl)-phenoxymethyl]-thiazole-4-carboxylic acid (4-trifluoromethyl-phenyl)-amide] | > 80 |  | 5 to 500
14 | O=C(Nc1ccc(Cl)cc1)c1coc(COc2ccc(CCCCn3ccnn3)cc2)n1 [Example 6, 2-[4-(4-[1,2,3]Triazol-1-yl-butyl)-phenoxymethyl]-oxazole-4-carboxylic acid (4-chloro-phenyl)-amide] |  |  | 500 to 3000
15 | O=C(Nc1nc(COc2ccc(CCCCn3ccnn3)cc2)cs1)c1ccc([N+](=O)[O-])cc1 [Example 52-1, 4-Nitro-N-{4-[4-(4-[1,2,3]triazol-1-yl-butyl)-phenoxymethyl]-thiazol-2-yl}-benzamide] |  |  | 5 to 500
16 | CN(C(=O)c1coc(COc2ccc(CCCCn3ccnn3)cc2)n1)c1ccc(OC(F)(F)F)cc1 [Example 30, 2-[4-(4-[1,2,3]Triazol-1-yl-butyl)-phenoxymethyl]-oxazole-4-carboxylic acid methyl-(4-trifluoromethoxy-phenyl)-amide] |  |  | 5 to 500
17 | Cc1cc(F)ccc1NC(=O)c1coc(COc2ccc(CCCCn3ccnn3)cc2)n1 [Example 25, 2-[4-(4-[1,2,3]Triazol-1-yl-butyl)-phenoxymethyl]-oxazole-4-carboxylic acid (4-fluoro-2-methyl-phenyl)-amide] |  |  | 5 to 500
18 | O=C(Nc1nc(COc2ccc(CCCCn3ccnn3)cc2)cs1)c1ccc(Cl)c(Cl)c1 [Example 52-9, 3,4-Dichloro-N-{4-[4-(4-[1,2,3]triazol-1-yl-butyl)-phenoxymethyl]-thiazol-2-yl}-benzamide] |  |  | 5 to 500
19 | O=C(Nc1nc(COc2ccc(CCCCn3ccnn3)cc2)cs1)c1ccc(OC(F)F)cc1 [Example 52-22, 4-Difluoromethoxy-N-{4-[4-(4-[1,2,3]triazol-1-yl-butyl)-phenoxymethyl]-thiazol-2-yl}-benzamide] |  |  | 5 to 500
20 | O=C(Nc1cc(F)cc(F)c1)c1coc(COc2ccc(CCCCn3ccnn3)cc2)n1 [Example 5, 2-[4-(4-[1,2,3]Triazol-1-yl-butyl)-phenoxymethyl]-oxazole-4-carboxylic acid (3,5-difluoro-phenyl)-amide] |  |  | 5 to 500
21 | O=C(Nc1ccc(Cl)cc1)c1csc(COc2ccc(CCCCn3ccnn3)cc2)n1 [Example 42, 2-[4-(4-[1,2,3]Triazol-1-yl-butyl)-phenoxymethyl]-thiazole-4-carboxylic acid (4-chloro-phenyl)-amide] |  |  | 5 to 500

Source: patent US20060116407A1, “Amide derivatives” (priority 2004, published 2006)
